Bounds are passed on as bounds.

In data set [1] the test system is IL-8 secreted by human pulmonary artery endothelial cells (HPAEC). The experiment in a line: In vitro IL-8 assay: TNF-alpha-stimulated IL-8 secretion by HPAEC, ELISA. The class given is cell-based. As to conditions: Endothelial cell, 10 microM compound, 20 hrs preincubation, then 2 ng/ml TNF-alpha for 4 hrs. Here is the method:
(§1) In Vitro IL-6 and IL-8 Assays
(§2) Compounds at dosing concentrations (with 0.2% DMSO vehicle) were incubated in EGM2MV cell media at 37° C. for overnight, added to 96-well plates seeded with confluent human pulmonary artery endothelial cells (HPAEC) for 20 hrs at 37° C., and then replaced with fresh dosing media containing 2 ng/ml tumor necrosis factor alpha for additional 4 hrs at 37° C. Afterwards, media was removed and used in ELISA assay to quantify the amount of IL-6 and IL-8 secreted by the cells using R&D Systems Duoset ELISA kits.

The test system of data set [2] is Balb/CJ mice, ovalbumin-sensitized and challenged. Put plainly: Mouse model of asthma: methacholine-induced airway reactivity (Penh) in ovalbumin-sensitized mice. Format: in vivo. As to conditions: po, 768 h, 50 mg/kg p.o., days 26-32, % inhibition of the PenH vs McH dose AUC compared with vehicle control, day 32, read-out: Reduction of Penh AUC at 50 mg/kg p.o. Here is the method:
Protocol for Testing Compounds in a Mouse Model of Asthma
Male 5-6 week old Balb/CJ mice were obtained from Jackson Laboratories (Bar Harbor, Me.). All experimental animals were used in accordance to Institutional Animal Care and Use Committee of AtheroGenics, Inc. Mice were sensitized by administering an intraperitoneal injection of 20 μg of ovalbumin (Calbiochem, La Jolla, Calif.) adsorbed in 2 mg of alum (Imject Alum; Pierce, Rockford, Ill.) on day 0 and 14. A group of mice received saline and served as negative control animals. The mice were challenged by aerosol exposure to ovalbumin (1% [wt/vol]) for 25 minutes on 3 consecutive days (days 28, 29, and 30) in a plexiglas exposure chamber coupled to an Aeroneb nebulizer (Buxco Electronics, Wilmington, N.C.). Experimental compounds were dissolved in Glycofurol/PEG 300/Tween (35%/55%/10%) (Sigma-aldrich; Milwaukee, Wis.). Animals were dosed orally with either test compound or vehicle (6 ml/kg dosing volume) on days 26-32 of study. Compound or vehicle was administered 2 hour before the aerosol challenge on days 28, 29, and 30 and 1 hour before airway reactivity measurement on day 32.
Methacholine-induced airway reactivity was assessed on day 32. Methacholine was administered in increasing concentrations ([…], 1.5, 3, 6, 12, 25, and 50 mg/ml) to unrestrained mice. Increases in airway resistance to Methacholine were determined as enhanced pause, (Penh) values, during and after the exposure (6-minute total analysis time). Mice were then humanely euthanized with an overdose of ketamine/xylazine and plasma samples collected for determination of drug levels. The data is presented as the % inhibition of the PenH vs McH dose AUC compared with the vehicle control.
Data analysis was conducting using the software package, JMP (SAS Institute Inc; Cary, N.C.). The Dunnett's multiple comparison test was used to compare treatment group means to the vehicle control group. P values of less than 0.05 were considered statistically significant. The data (Table 1) are presented as the % inhibition of the PenH vs McH dose AUC compared with the vehicle control.

Data set [3] has as its system IL-6 secreted by human pulmonary artery endothelial cells (HPAEC). The experiment in a line: In vitro IL-6 assay: TNF-alpha-stimulated IL-6 secretion by HPAEC, ELISA. Format: cell-based. As to conditions: Endothelial cell, 10 microM compound, 20 hrs preincubation, then 2 ng/ml TNF-alpha for 4 hrs. Here is the method: as §1, §2

As for `Cc1cc2c(cc1O)C(C)(C)CC1(CC(C)(C)c3cc(OCC(=O)O)c(C)cc3O1)O2` (racemic) [Example 7, (±)-6′-(Hydroxy-4,4,4′,4′,7,7′-hexamethyl-2,2′-spirobichroman-6-yloxy)-acetic acid], the melting point was 227 to 229 °C. The inhibition at 10 µM in data set [1] was 0%. For the same molecule, the inhibition in vivo at 50 mg/kg in data set [2] is > 40%. In data set [3], this molecule had an inhibition at 10 µM of 12%.
For the molecule `Cc1cc2c(cc1OCC(=O)O)C(C)(C)CC1(CC(C)(C)c3cc(OCC(=O)O)c(C)cc3O1)O2` (racemic) [Example 21, (±)-[(4,4,4′,4′,7,7′-Hexamethyl-2,2′-spirobichroman-6,6′-diyl)bis(oxy)]-bis-acetic acid], the melting point is > 260 °C. For the same molecule, at 10 µM the inhibition in data set [1] was 19%. In addition, in data set [2], the inhibition in vivo at 50 mg/kg is 20 to 40%. This molecule came in with an inhibition at 10 µM in data set [3] of 25%.
Take `Cc1cc2c(cc1O)C(C)(C)CC1(CC(C)(C)c3cc(OCCCC(=O)O)c(C)cc3O1)O2` (racemic) [Example 12, 4-[(±)-(6′-Hydroxy-4,4,4′,4′,7,7′-hexamethyl-2,2′-spirobichroman-6-yloxy)-]butyric acid]: the melting point is 173 to 174 °C. For the same molecule, 10 µM produced 0% inhibition in data set [1]. The inhibition in vivo at 50 mg/kg in data set [2] is < 20%. Besides, the inhibition at 10 µM in data set [3] was 0%.
`Cc1cc2c(cc1O)C(C)(C)CC1(CC(C)(C)c3cc(OCCO)c(C)cc3O1)O2` (racemic) [Example 1, (±)-6′-Hydroxy-6-(2-hydroxyethoxy)-4,4,4′,4′,7,7′-hexamethyl-2,2′-spirobichroman] had a melting point of 186 to 188 °C. The molecule further displayed an inhibition at 10 µM in data set [1] of 0%. The inhibition in vivo at 50 mg/kg in data set [2] is < 20%. In data set [3], this molecule registered an inhibition at 10 µM of 20%.
The molecule `Cc1cc2c(cc1O)C(C)(C)CC1(CC(C)(C)c3cc(OCCCO)c(C)cc3O1)O2` (racemic) [Example 3, (±)-6′-Hydroxy-6-(3-hydroxypropoxy)-4,4,4′,4′,7,7′-hexamethyl-2,2′-spirobichroman] came in with a melting point of 175 to 177 °C. The inhibition at 10 µM in data set [1] is 13%. Further, in data set [2], the inhibition in vivo at 50 mg/kg was 20 to 40%. Moreover, the inhibition at 10 µM in data set [3] amounted to 53%.
